The record followed here is ChEMBL document CHEMBL3822385, “Antileishmanial activity of new thiophene-indole hybrids: Design, synthesis, biological and cytotoxic evaluation, and chemometric studies” (Bioorg Med Chem, 2016).

In brackets after ≈: the same amount, converted by molar mass. Activity calls are given as the source filed them. The rule behind the calls is not given here.

The nature of data set [1]: Selectivity index, ratio of HC50 for human O+ erythrocytes to IC50 for Leishmania amazonensis IFLA/BR/67/PH8 promastigotes.
In data set [2] the test system is Leishmania amazonensis. Kind of data set: Antileishmanial activity against Leishmania amazonensis IFLA/BR/67/PH8 promastigotes assessed as parasite growth inhibition incubated for 72 hrs using neubauer chamber by microscopic analysis. It counts as functional, organism-based. The conditions noted are these: IFLA/BR/67/PH8, 72 h.
Data set [3] in a line: Hemolytic activity in human O+ erythrocytes after 1 hr by spectrophotometry. Type of data set: ADME, cell-based, Erythrocyte. The following applies: for HC50 at 1 h: human O+ erythrocytes.
The subject of data set [4] is Leishmania amazonensis. Kind of data set: Induction of genomic DNA fragmentation in Leishmania amazonensis IFLA/BR/67/PH8 promastigotes at 1 to 4 times antileishmanial IC50 after overnight incubation by GelRed staining based agarose gel electrophoresis. It counts as functional, organism-based.
Data set [5] deals with Leishmania amazonensis. As to the kind of experiment: Antileishmanial activity against trivalent antimony-resistant Leishmania amazonensis IFLA/BR/67/PH8 promastigotes assessed as parasite growth inhibition incubated for 72 hrs using neubauer chamber by microscopic analysis. Type of data set: functional, organism-based. The following applies: IFLA/BR/67/PH8, 72 h.

Broadly, the IC50 is the point on the concentration scale where inhibition reaches its midpoint. Broadly, the HC50 is the concentration that lyses half of the red blood cells. A lower HC50 goes with stronger haemolysis. Consider `N#Cc1ccc2[nH]cc(/C=N/c3sc4c(c3C#N)CCCCC4)c2c1`, for which, in data set [1], the “Selectivity Index” value was over 115.6. The IC50 in data set [2] is 3.4 µg/mL (≈ 9.87 µM). The HC50 at 1 h in data set [3] is over 400 µg/mL.
The like results for `N#Cc1c(/N=C/c2c[nH]c3ccccc23)sc2c1CCC2` were, in that order, over 8.2, 48.9 µg/mL (≈ 168 µM) and over 400 µg/mL.
Consider `COc1ccc2[nH]cc(/C=N/c3sc4c(c3C#N)CCCCC4)c2c1`, for which, in data set [1], the “Selectivity Index” value is on record as over 39.1. Further, in data set [2], the IC50 was found to be 10.2 µg/mL (≈ 29.2 µM). This compound yielded an HC50 at 1 h in data set [3] of over 400 µg/mL.
The matching figures for `Cc1cccc2c(/C=N/c3sc4c(c3C#N)CCCCCC4)c[nH]c12`: over 96.6, 4.1 µg/mL (≈ 11.8 µM) and over 400 µg/mL.
The matching figures for `Cc1ccc2[nH]cc(/C=N/c3sc4c(c3C#N)CCCCC4)c2c1`: over 65.6, 6.1 µg/mL (≈ 18.3 µM) and over 400 µg/mL.
The matching figures for `N#Cc1c(/N=C/c2c[nH]c3ncccc23)sc2c1CCCCC2`: over 45.8, 8.7 µg/mL (≈ 27.2 µM) and over 400 µg/mL.
Turning to `N#Cc1c(/N=C/c2c[nH]c3cccc([N+](=O)[O-])c23)sc2c1CCC2`, the IC50 in data set [2] was 171 µg/mL (≈ 509 µM).
As to `N#Cc1c(/N=C/c2c[nH]c3ccccc23)sc2c1CCCCCC2`, the “Selectivity Index” value in data set [1] is on record as over 73.2. Moreover, the IC50 in data set [2] worked out at 5.4 µg/mL (≈ 16.2 µM). This compound gave an HC50 at 1 h in data set [3] of over 400 µg/mL.
In data set [3] (erythrocyte, 1 h), “MEGLUMINE ANTIMONATE [listing 1 of 2 here]” returned an HC50 of 681.2 µg/mL.
On to `N#Cc1c(/N=C/c2c[nH]c3ncccc23)sc2c1CCC2`, for which the “Selectivity Index” value in data set [1] is recorded as over 1.4. Further, the IC50 in data set [2] came out at 289 µg/mL (≈ 988 µM). This compound also showed a concentration for 50% haemolysis (HC50) at 1 h in data set [3] of over 400 µg/mL.
The matching figures for `N#Cc1c(/N=C/c2c[nH]c3c2ccc2ccccc23)sc2c1CCCC2`: over 13.5, 29.7 µg/mL (≈ 83.6 µM) and over 400 µg/mL.
“MEGLUMINE ANTIMONATE [listing 2 of 2 here]”: the Selectivity Index in data set [1] was 0.02.
`N#Cc1c(/N=C/c2c[nH]c3ncccc23)sc2c1CCCC2`: in data set [1], the “Selectivity Index” value is given as over 1.7. For the same compound, in data set [2], the 50% inhibitory concentration (IC50) stood at 228 µg/mL (≈ 744 µM). The compound also showed a 50% haemolytic concentration (HC50) at 1 h in data set [3] of over 400 µg/mL.
Regarding `N#Cc1ccc2[nH]cc(/C=N/c3sc4c(c3C#N)CCC4)c2c1`, the “Selectivity Index” value in data set [1] is over 53.7. In addition, in data set [2], the concentration for half-maximal inhibition (IC50) was 7.4 µg/mL (≈ 23.4 µM). In addition, in data set [3], the HC50 at 1 h was over 400 µg/mL.
The like results for `C[C@@H]1[C@H](O)[C@@H](C)/C=C/C=C/C=C/C=C/C=C/C=C/C=C/[C@H](O[C@@H]2O[C@H](C)[C@@H](O)[C@H](N)[C@@H]2O)C[C@@H]2O[C@](O)(C[C@@H](O)C[C@@H](O)[C@H](O)CC[C@@H](O)C[C@@H](O)CC(=O)O[C@H]1C)C[C@H](O)[C@H]2C(=O)O` [AMPHOTERICIN B] were, in that order, 124.5, 0.2 µg/mL (≈ 0.216 µM) and 22.4 µg/mL.
The like results for `N#Cc1c(/N=C/c2c[nH]c3ncccc23)sc2c1CCCCCC2` were, in that order, over 0.6, 651 µg/mL (≈ 1950 µM) and over 400 µg/mL.
The like results for `Cc1cccc2c(/C=N/c3sc4c(c3C#N)CCCCC4)c[nH]c12` were, in that order, over 0.5, 786 µg/mL (≈ 2360 µM) and over 400 µg/mL.
As for `COc1ccc2[nH]cc(/C=N/c3sc4c(c3C#N)CCCCCC4)c2c1`, in data set [1], the “Selectivity Index” value is recorded as over 62.7. Besides, the IC50 in data set [2] is 6.4 µg/mL (≈ 17.6 µM). This compound also had an HC50 at 1 h in data set [3] of over 400 µg/mL.
The like results for `Cc1cccc2c(/C=N/c3sc4c(c3C#N)CCCC4)c[nH]c12` were, in that order, over 1.2, 322 µg/mL (≈ 1010 µM) and over 400 µg/mL.
The matching figures for `N#Cc1c(/N=C/c2c[nH]c3cccc([N+](=O)[O-])c23)sc2c1CCCCC2`: over 0.3, 1070 µg/mL (≈ 2930 µM) and over 400 µg/mL.
Potassium antimonyl tartrate trihydrate: the Selectivity Index in data set [1] stood at 38.2.
Turning to `N#Cc1c(/N=C/c2c[nH]c3c2ccc2ccccc23)sc2c1CCCCC2`, the “Selectivity Index” value in data set [1] is given as over 21.4. The IC50 in data set [2] was found to be 18.7 µg/mL (≈ 50.6 µM). This compound also had an HC50 at 1 h in data set [3] of over 400 µg/mL.
For the compound `COc1ccc2[nH]cc(/C=N/c3sc4c(c3C#N)CCCC4)c2c1`, in data set [1], the “Selectivity Index” value is over 66.8. The IC50 in data set [2] is 6 µg/mL (≈ 17.9 µM). In addition, in data set [3], the concentration for 50% haemolysis (HC50) at 1 h was over 400 µg/mL.
In the case of `Cc1ccc2[nH]cc(/C=N/c3sc4c(c3C#N)CCC4)c2c1`, in data set [1], the “Selectivity Index” value is on record as over 56.6. In data set [2], the concentration for half-maximal inhibition (IC50) amounted to 7.1 µg/mL (≈ 23.2 µM). Moreover, in data set [3], the HC50 at 1 h was over 400 µg/mL.
Turning to `N#Cc1c(/N=C/c2c[nH]c3cccc([N+](=O)[O-])c23)sc2c1CCCCCC2`, the “Selectivity Index” value in data set [1] was over 42.5. The IC50 in data set [2] was determined as 9.4 µg/mL (≈ 24.8 µM). The compound also returned an HC50 at 1 h in data set [3] of over 400 µg/mL.
Consider `N#Cc1c(/N=C/c2c[nH]c3c2ccc2ccccc23)sc2c1CCC2`, for which, in data set [1], the “Selectivity Index” value is listed as over 50.7. In addition, the IC50 in data set [2] was 7.9 µg/mL (≈ 23.1 µM). Moreover, in data set [3], the concentration for 50% haemolysis (HC50) at 1 h is over 400 µg/mL.
Regarding `Cc1cccc2c(/C=N/c3sc4c(c3C#N)CCC4)c[nH]c12`, in data set [2], the IC50 was found to be 91.6 µg/mL (≈ 300 µM).
Regarding `Cc1ccc2[nH]cc(/C=N/c3sc4c(c3C#N)CCCC4)c2c1`, the “Selectivity Index” value in data set [1] was over 172.4. For the same compound, the IC50 in data set [2] stood at 2.3 µg/mL (≈ 7.2 µM). Further, the HC50 at 1 h in data set [3] was over 400 µg/mL.
The like results for `COc1ccc2[nH]cc(/C=N/c3sc4c(c3C#N)CCC4)c2c1` were, in that order, over 3.2, 125 µg/mL (≈ 388 µM) and over 400 µg/mL.
The like results for `Cc1ccc2[nH]cc(/C=N/c3sc4c(c3C#N)CCCCCC4)c2c1` were, in that order, over 61.3, 6.5 µg/mL (≈ 18.7 µM) and over 400 µg/mL.
On to `N#Cc1c(/N=C/c2c[nH]c3c2ccc2ccccc23)sc2c1CCCCCC2`, for which, in data set [1], the “Selectivity Index” value is reported as over 42.6. In data set [2], the IC50 worked out at 9.4 µg/mL (≈ 24.5 µM). In data set [3], this compound yielded an HC50 at 1 h of over 400 µg/mL.
In the case of `N#Cc1c(/N=C/c2c[nH]c3ccccc23)sc2c1CCCC2`, the “Selectivity Index” value in data set [1] is on record as over 88.8. The IC50 in data set [2] came out at 4.5 µg/mL (≈ 14.7 µM). Moreover, the HC50 at 1 h in data set [3] was over 400 µg/mL.
The like results for `N#Cc1ccc2[nH]cc(/C=N/c3sc4c(c3C#N)CCCC4)c2c1` were, in that order, over 84.7, 4.7 µg/mL (≈ 14.2 µM) and over 400 µg/mL.
`N#Cc1ccc2[nH]cc(/C=N/c3sc4c(c3C#N)CCCCCC4)c2c1`: the “Selectivity Index” value in data set [1] was over 193.2. The result in data set [4] was Active. Further, the results for the IC50 in data set [2] and in data set [5] were 2.1 µg/mL (≈ 5.86 µM) and 2.8 µg/mL (≈ 7.81 µM), respectively. This compound also showed an HC50 at 1 h in data set [3] of over 400 µg/mL.
As for `N#Cc1c(/N=C/c2c[nH]c3cccc([N+](=O)[O-])c23)sc2c1CCCC2`, the “Selectivity Index” value in data set [1] is reported as over 1.3. Moreover, the IC50 in data set [2] came out at 299 µg/mL (≈ 853 µM). The same compound displayed an HC50 at 1 h in data set [3] of over 400 µg/mL.
The matching figures for `N#Cc1c(/N=C/c2c[nH]c3ccccc23)sc2c1CCCCC2`: over 124.6, 3.2 µg/mL (≈ 10 µM) and over 400 µg/mL.
